This note sets out measurements from patent publication US7135470B2, “Thienopyridazines as IKK inhibitors” (Roche Palo Alto LLC, priority 2004, dated 2006).

The structures appear in SMILES notation.

One may read the IC50 as the concentration that gives 50% inhibition.

In the assay the target is T1, purified recombinant human IKKb (Homo sapiens, UniProt O14920).
T1 sequence (O14920 1-756): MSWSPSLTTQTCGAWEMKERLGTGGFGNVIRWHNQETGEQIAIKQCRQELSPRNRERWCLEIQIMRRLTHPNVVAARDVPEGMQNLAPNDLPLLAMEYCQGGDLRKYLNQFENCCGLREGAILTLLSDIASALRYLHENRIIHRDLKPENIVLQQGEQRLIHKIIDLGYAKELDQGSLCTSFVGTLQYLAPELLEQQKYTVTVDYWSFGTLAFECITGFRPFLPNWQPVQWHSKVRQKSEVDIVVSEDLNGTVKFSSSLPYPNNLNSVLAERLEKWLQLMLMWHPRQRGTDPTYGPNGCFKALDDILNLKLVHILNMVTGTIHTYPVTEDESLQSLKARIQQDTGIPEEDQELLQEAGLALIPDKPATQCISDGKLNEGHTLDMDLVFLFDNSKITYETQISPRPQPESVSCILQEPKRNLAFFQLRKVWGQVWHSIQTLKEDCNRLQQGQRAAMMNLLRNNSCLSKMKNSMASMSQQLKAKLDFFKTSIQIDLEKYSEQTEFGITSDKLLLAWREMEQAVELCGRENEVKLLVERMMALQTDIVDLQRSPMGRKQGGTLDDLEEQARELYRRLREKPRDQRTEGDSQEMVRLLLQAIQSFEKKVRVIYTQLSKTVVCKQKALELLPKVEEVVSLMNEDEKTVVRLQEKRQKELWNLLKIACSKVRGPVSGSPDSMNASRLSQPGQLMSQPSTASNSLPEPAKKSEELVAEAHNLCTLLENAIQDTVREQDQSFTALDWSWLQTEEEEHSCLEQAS
Put plainly: IKKb kinase assay, incorporation of radiolabeled 33P gATP into Biotin-peptide substrate derived from IkB-alpha. Type of assay: biochemical. The following applies: recombinant human IKKb 25 nM, ATP 10 μM, peptide substrate 30 μM, 30 minutes at 30° C. The method, then: This example describes an assay that is useful in evaluating and selecting a compound that modulates IKK. The assay measures the incorporation of radiolabeled ^33P gATP into the Biotin-peptide kinase substrate, derived from the IkB-alpha sequence.
In a 40 ul volume, 26 ul of ADB diluted, purified recombinant human IKKb [25 nM] was mixed with 4 ul 10× concentration of test compounds, [usually 100 uM–0.003 uM], [10%] DMSO and incubated for 10 minutes at room temperature. The kinase reaction was initiated by the addition of 10 ul 4× substrate cocktail containing the peptide substrate [0 or 30 μM] ATP [10 μM], and ^33PgATP [2uCi/rxn]. After 30 minutes of incubation at 30° C., the reaction was terminated by the transfer of 25 ul reaction sample to a phosphocellulose membrane/plate containing 150 ul 0.75% phosphoric acid.
On the following day, the free radionucleotides in the phosphocellulose membrane were washed under vacuum with 3×200 ul of 0.75% phosphoric acid. After the last wash membrane/plates were transferred to an adoptor plate and 70 ul of scintillation cocktail was added to each well. After four hours, the amount of radioactivity for each well was counted in a top counter.

In the case of `NC(=O)c1nnc(N)c2cc(-c3ccc(F)cc3)sc12` [Compound 3, 4-Amino-2-(4-fluoro-phenyl)-thieno[2,3-d]pyridazine-7-carboxylic acid amide], the IC50 is less than 1 µM.
